Biological target: T1, SoGDH (spinach L-galactose dehydrogenase) (Spinacia oleracea, UniProt Q6BDJ2)
T1 sequence (Q6BDJ2 1-322): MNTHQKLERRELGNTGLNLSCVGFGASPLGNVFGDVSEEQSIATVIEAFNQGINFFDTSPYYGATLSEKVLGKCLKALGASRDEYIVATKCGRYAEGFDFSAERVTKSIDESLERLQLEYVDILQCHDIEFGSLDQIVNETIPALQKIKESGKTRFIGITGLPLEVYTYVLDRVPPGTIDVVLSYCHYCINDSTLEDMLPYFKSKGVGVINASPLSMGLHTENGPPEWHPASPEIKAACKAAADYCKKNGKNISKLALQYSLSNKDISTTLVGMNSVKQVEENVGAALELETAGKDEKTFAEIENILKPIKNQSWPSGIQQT
Test: X-ray crystal structure, co-crystallisation, […] A
Type: binding
Details: 5 mM NAD+, 1 mM L-galactose in drop, Bis-Tris pH 5.5

Which “X-ray crystal structure, co-crystallisation, 1.75 A” value does the source give for `NC(=O)c1ccc[n+]([C@@H]2O[C@H](COP(=O)(O)OP(=O)(O)OC[C@H]3O[C@@H](n4cnc5c(N)ncnc54)[C@H](O)[C@@H]3O)[C@@H](O)[C@H]2O)c1` [NAD^+] here?
Its value is “crystals of SoGDH complexed with the cofactor NAD^+ were obtained using co-crystallization”.
